Like-named read-outs stand apart in the source and are kept apart here.
Columns and labels:
[1] = tested on: MES SA, MES SA DX and HEK 293T cells; assay: In vitro cytotoxicity assay, structure-activity discussion over the cell lines tested; conditions: refers to Tables 2 and 3
[2] = tested on: HEK 293T (human embryonic kidney cancer cell line); assay: In vitro cytotoxicity assay (CellTiter-Glo, 72 hours), HEK 293T; type: cell-based; conditions: Homo sapiens, HEK-293T, 72 h
[3] = tested on: MES SA (uterine sarcoma cell line); assay: In vitro cytotoxicity assay (CellTiter-Glo, 72 hours), MES SA; type: cell-based; conditions: Homo sapiens, MES-SA, 72 h
[4] = tested on: MES SA DX (MES SA cell line with marked multi-drug resistance); assay: In vitro cytotoxicity assay (CellTiter-Glo, 72 hours), MES SA DX; conditions: Homo sapiens, MES-SA, 72 h
[5] = read-out: HEK 293T, IC50 Value in nM
[6] = read-out: MES SA, IC50 Value in nM
[7] = read-out: MES SA DX, IC50 Value in nM

Row | Compound | cytotoxicity potency (in words, structure-activity discussion) [1] | IC50 [2, 5] [nM] | IC50 [3, 6] [nM] | IC50 [4, 7] [nM] | IC50 ([2]; read-out: HEK 293T, IC50) [nM] | IC50 ([3]; read-out: MES SA, IC50) [nM] | IC50 ([4]; read-out: MES SA DX, IC50) [nM]
1 | COC(=O)[C@@H](C)C[C@H](Cc1ccc2ccccc2c1)NC(=O)c1csc([C@@H](C[C@H](C(C)C)N(C)C(=O)[C@@H](NC(=O)[C@H]2CCCCN2C)C(C)C)OC(C)=O)n1 [Tb104, Methyl (2S)-4-{[(2-{1-acetoxy-4-methyl-3-[methyl(3-methyl-2-{[(1-methylpiperidin-2-yl)carbonyl]-amino}butanoyl)amino]pentyl}-1,3-thiazol-4-yl)carbonyl]amino}-2-methyl-5-(2-naphthyl)pentanoate] | modest potency | 12.8 | 9.5 | > 1000 |  |  | 
2 | CCCC[C@H](NC(=O)[C@H]1CCCCN1C)C(=O)N(C)[C@H](C[C@@H](OC(C)=O)c1nc(C(=O)N[C@@H](Cc2ccccc2)C[C@H](C)C(=O)OCC)cs1)C(C)C [Tb95, Ethyl (2S,4R)-4-[({2-[(1R,3R)-1-acetoxy-4-methyl-3-{methyl[(2S)-2-({[(2R)-1-methylpiperidin-2-yl]-carbonyl}amino)hexanoyl]amino}pentyl]-1,3-thiazol-4-yl}carbonyl)amino]-2-methyl-5-phenylpentanoate] | lack of or significantly lower cytotoxicities | 0.53 | 0.937 | > 1000 | 0.53 | 0.937 | > 1000
3 | CC[C@H](C)[C@H](NC(=O)[C@H]1CCCCN1C)C(=O)N(C)[C@H](CC(=O)c1nc(C(=O)N[C@@H](Cc2ccccc2)C[C@H](C)C(=O)O)cs1)C(C)C [Tb59, (2S,4R)-2-Methyl-4-[({2-[(3R)-4-methyl-3-{methyl[(2S,3S)-3-methyl-2-({[(2R)-1-methylpiperidin-2-yl]carbonyl}amino)pentanoyl]amino}pentanoyl]-1,3-thiazol-4-yl}carbonyl)amino]-5-phenylpentanoic acid] | significant reduction in potency | > 1000 | > 1000 | > 1000 |  |  | 
4 | CCCCN1CCCC[C@@H]1C(=O)N[C@H](C(=O)N(C)[C@H](C[C@@H](OC(C)=O)c1nc(C(=O)N[C@H]2CC[C@H](C(=O)OC)CC2)cs1)C(C)C)C(C)C [Tb54, Methyl trans-4-[({2-[(1R,3R)-1-acetoxy-3-{[(2S)-2-({[(2R)-1-butylpiperidin-2-yl]carbonyl}amino)-3-methylbutanoyl](methyl)amino}-4-methylpentyl]-1,3-thiazol-4-yl}carbonyl)amino]cyclohexanecarboxylate] | insignificant or low biological activity | > 1000 | > 1000 | > 1000 |  |  | 
5 | CC(=O)O[C@H](C[C@H](C(C)C)N(C)C(=O)[C@@H](NC(=O)[C@H]1CCCCN1C)C(C)C)c1nc(C(=O)N[C@@H](Cc2ccccc2)C[C@H](C)C(=O)O)cs1 [Tb61, (2S,4R)-4-[({2-[(1R,3R)-1-Acetoxy-4-methyl-3-{methyl[(2S)-3-methyl-2-({[(2R)-1-methylpiperidin-2-yl]carbonyl}amino)butanoyl]amino}pentyl]-1,3-thiazol-4-yl}carbonyl)amino]-2-methyl-5-phenylpentanoic acid] | exceptional potencies | 5.99 | 6.07 | > 1000 |  |  | 
6 | CCOC(=O)[C@@H](C)C[C@H](Cc1ccccc1)NC(=O)c1csc([C@@H](C[C@H](C(C)C)N(C)C(=O)[C@H](CCC(C)C)NC(=O)[C@H]2CCCCN2C)OC(C)=O)n1 [Tb97, Ethyl (2S,4R)-4-[({2-[(1R,3R)-1-acetoxy-4-methyl-3-{methyl[(2S)-5-methyl-2-({[(2R)-1-methyl-piperidin-2-yl]carbonyl}amino)hexanoyl]amino}pentyl]-1,3-thiazol-4-yl}carbonyl)amino]-2-methyl-5-phenylpentanoate] | lack of or significantly lower cytotoxicities | 2.87 | 4.65 | > 1000 |  |  | 
7 | CC(C)[C@H](NC(=O)[C@H]1CCCCN1C)C(=O)N(C)[C@H](C[C@@H](O)c1nc(C(=O)N[C@@H](Cc2ccccc2)C[C@H](C)C(=O)O)cs1)C(C)C [Tb60, (2S,4R)-4-[({2-[(1R,3R)-1-Hydroxy-4-methyl-3-{methyl[(2S)-3-methyl-2-({[(2R)-1-methylpiperidin-2-yl]carbonyl}amino)butanoyl]amino}pentyl]-1,3-thiazol-4-yl}carbonyl)amino]-2-methyl-5-phenylpentanoic acid] | significant reduction in potency | 6.34 | 14 | > 2500 |  |  | 
8 | CC(=O)O[C@H](C[C@H](C(C)C)N(C)C(=O)[C@@H](NC(=O)[C@H]1CCCCN1C)C(C)C)c1nc(C(=O)N[C@@H](Cc2ccccc2)C[C@H](C)C(=O)O)c(C)s1 [Tb67, (2S,4R)-4-[({2-[(1R,3R)-1-Acetoxy-4-methyl-3-{methyl[(2S)-3-methyl-2-({[(2R)-1-methylpiperidin-2-yl]carbonyl}amino)butanoyl]amino}pentyl]-5-methyl-1,3-thiazol-4-yl}carbonyl)amino]-2-methyl-5-phenylpentanoic acid] | some loss of potency | 0.143 | 0.836 | 71.5 | 0.144 | 0.836 | 71.5
9 | CCOC(=O)[C@@H](C)C[C@H](Cc1ccccc1)NC(=O)c1csc([C@@H](C[C@H](C(C)C)N(C)C(=O)[C@@H](NC(=O)[C@H]2CCCCN2C)C(C)(C)CC)OC(C)=O)n1 [Tb108, Ethyl (2S,4R)-4-[({2-[(1R,3R)-1-acetoxy-3-{[(2S)-3,3-dimethyl-2-({[(2R)-1-methylpiperidin-2-yl]car-bonyl}amino)pentanoyl](methyl)amino}-4-methylpentyl]-1,3-thiazol-4-yl}carbonyl)amino]-2-methyl-5-phenylpentanoate] | exceptional potencies | 0.38 | 0.95 | 6.08 | 0.38 | 0.95 | 6.08

Source: US11274124B2, “Tubulysin analogues as anticancer agents and payloads for antibody-drug conjugates and methods of treatment therewith” (William Marsh Rice University, priority 2017, dated 2022)
